US20210070735A1, “RIP1 INHIBITORY COMPOUNDS AND METHODS FOR MAKING AND USING THE SAME” (Rigel Pharmaceuticals, Inc., priority 2019, published 2021)

Columns and labels:
human RIP1 = target: T1, human RIP1 (Homo sapiens, UniProt Q13546); test: U937 cell necroptosis assay (TNFa + zVAD, CellTiter-Glo); type: cell-based; conditions: U937 Zvad TNF CTG Recovery, U937 cells, TNFa 2 ng/mL + zVAD-fmk, 18 hours
T1 construct: U937 and L929 cells were obtained from the American Type Culture Collection; host or cells: U937
T1 sequence (Q13546 1-671): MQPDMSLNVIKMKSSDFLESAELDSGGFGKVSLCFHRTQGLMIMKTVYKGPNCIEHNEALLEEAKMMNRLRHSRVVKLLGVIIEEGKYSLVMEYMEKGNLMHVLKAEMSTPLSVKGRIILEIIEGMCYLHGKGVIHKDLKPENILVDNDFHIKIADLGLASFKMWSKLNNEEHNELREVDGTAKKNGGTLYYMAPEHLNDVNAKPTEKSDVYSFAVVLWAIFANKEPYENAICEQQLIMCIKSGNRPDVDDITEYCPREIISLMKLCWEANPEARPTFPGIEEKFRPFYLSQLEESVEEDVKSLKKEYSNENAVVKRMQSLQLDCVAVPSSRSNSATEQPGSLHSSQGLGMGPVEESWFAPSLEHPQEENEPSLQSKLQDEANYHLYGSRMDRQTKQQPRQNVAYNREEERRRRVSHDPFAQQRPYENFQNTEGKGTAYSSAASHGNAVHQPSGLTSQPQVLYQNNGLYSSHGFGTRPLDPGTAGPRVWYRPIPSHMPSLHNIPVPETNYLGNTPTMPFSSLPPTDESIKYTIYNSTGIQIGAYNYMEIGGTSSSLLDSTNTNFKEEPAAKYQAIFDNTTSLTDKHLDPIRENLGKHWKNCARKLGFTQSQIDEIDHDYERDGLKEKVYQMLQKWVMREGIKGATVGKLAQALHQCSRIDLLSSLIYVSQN
Procedure: (§1) In this example, U937 and L929 cells were exposed to compounds of the present disclosure and a cell necroptosis assay was conducted to evaluate the compounds' activity against human RIP1 and murine RIP1.
(§2) U937 and L929 cells were obtained from the American Type Culture Collection (Manassa, Va., USA). Both cells were maintained in logarithmic growth phase in complete RPMI 1640 media (Sigma, ST Louis, Mo., USA) supplemented with 10% fetal bovine serum (Sigma, ST Louis, Mo., USA) at 37° C. with 5% CO2. For necroptosis assay, L929 cells were plated for 18 h in 100 µL/well medium at 10K cells/well in Costar 96-well black clear-bottom plates (Fisher Scientific, Hampton, N.H., USA); U937 cells were plated on the day of the assay in 50 µL/well medium containing 60 uM zVAD-fmk (Lonza, Basel, Switzerland) at 50K cells/well. Medium from L929 cells were removed from the 96-well plates and replaced with 50 µL/well new medium containing 40 uM zVAD-fmk. Each compound of the present disclosure evaluated in this example was serially diluted in DMSO from 2.5 mM in 4-fold dilutions, and then diluted 1:125 in complete medium. 50 µL/well 2× of the compound was then added to the cells in the plates. The cells were pre-incubated with the compound for 1 hour at 37° C. with 5% CO2 and before addition of 10 µL/well 11×TNFa (Peprotech, Rocky Hill, N.J., USA) to give a final concentration of 2 ng/mL for TNFa. The relative amount of necroptosis cells was determined by luminescent using a Wallac Victor2 Luminometer (PerkinElmer, Waltham, Mass., USA) and a CellTiter-Glo® Luminescent Cell Viability Reagent Assay (Promega, Madison, Wis., USA) added per manufacturer instructions after 18 hours of TNFa stimulation at 37° C. with 5% CO2.Results from this example are summarized in Table 2. This example establishes that embodiments of the compounds described herein have unexpectedly potent activity against human RIP1 and murine RIP1, which allows their assessment in in vivo mouse models of disease.

RIPK1 = target: T2, RIPK1 (Homo sapiens, UniProt Q13546); test: RIPK1 ADP-Glo biochemical kinase assay; conditions: 30 min at 30° C.
T2 sequence (Q13546 1-671): T1 sequence (Q13546 1-671)
Procedure: The final reaction volume was 5.0 μl.
Adding 5 μl of ADP-Glo™ terminated the reaction.

murine RIP1 = target: T3, murine RIP1 (Mus musculus, UniProt Q60855); test: L929 cell necroptosis assay (TNFa + zVAD, CellTiter-Glo); type: cell-based
T3 construct: U937 and L929 cells were obtained from the American Type Culture Collection; host or cells: L929
T3 sequence (Q60855 1-656): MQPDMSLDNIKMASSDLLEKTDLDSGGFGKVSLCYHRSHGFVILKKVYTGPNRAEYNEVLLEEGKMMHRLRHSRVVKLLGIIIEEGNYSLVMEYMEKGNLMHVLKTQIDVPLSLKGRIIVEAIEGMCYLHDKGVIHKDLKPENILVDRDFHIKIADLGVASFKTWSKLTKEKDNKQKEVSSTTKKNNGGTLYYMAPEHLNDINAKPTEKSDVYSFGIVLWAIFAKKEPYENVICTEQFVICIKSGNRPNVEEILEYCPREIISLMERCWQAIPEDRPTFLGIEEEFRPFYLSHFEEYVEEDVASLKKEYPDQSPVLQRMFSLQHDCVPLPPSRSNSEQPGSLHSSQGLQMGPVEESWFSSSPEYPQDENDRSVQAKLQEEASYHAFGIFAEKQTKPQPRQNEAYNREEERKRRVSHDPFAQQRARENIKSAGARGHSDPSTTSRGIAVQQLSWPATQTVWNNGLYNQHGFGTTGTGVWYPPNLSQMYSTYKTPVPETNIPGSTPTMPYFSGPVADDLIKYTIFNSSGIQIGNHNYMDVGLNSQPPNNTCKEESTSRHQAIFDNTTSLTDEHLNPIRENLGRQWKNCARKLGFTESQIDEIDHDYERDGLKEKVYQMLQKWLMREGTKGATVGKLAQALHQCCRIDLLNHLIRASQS
Procedure: as §1, §2

Row | SMILES | IC50 (RIPK1) [nM] | IC50 (human RIP1) [nM] | IC50 (murine RIP1) [nM]
1 | CN1C(=O)C(NC(=O)c2n[nH]c(Cc3ccccc3)n2)CCc2ccc(N3CCC4(CCOCC4)CC3)cc21 (racemic) [Compound I-13, (±)-5-Benzyl-N-(1-methyl-2-oxo-8-(3-oxa-9-azaspiro[5.5]undecan-9-yl)-2,3,4,5-tetrahydro-1H-benzo[b]azepin-3-yl)-1H-1,2,4-triazole-3-carboxamide] | 373 | 2.1 | 94.9
2 | [2H]C([2H])([2H])N1C(=O)C(NC(=O)c2n[nH]c(Cc3ccccc3)n2)CCc2ccc(N3CC4(CCOCC4)C3)cc21 (racemic) [Compound I-15, (±)-5-Benzyl-N-(1-(methyl-d3)-2-oxo-8-(7-oxa-2-azaspiro[3.5]nonan-2-yl)-2,3,4,5-tetrahydro-1H-benzo[b]azepin-3-yl)-1H-1,2,4-triazole-3-carboxamide] | 106 | 7.9 | 257
3 | CN1C(=O)[C@@H](NC(=O)c2ccn(Cc3ccccc3)n2)CCc2ccc(C#CC(C)(C)C)cc21 [Compound I-33, (S)-1-Benzyl-N-(8-(3,3-dimethylbut-1-yn-1-yl)-1-methyl-2-oxo-2,3,4,5-tetrahydro-1H-benzo[b]azepin-3-yl)-1H-pyrazole-3-carboxamide] | 54.6 | 7.6 | 30
4 | CN1C(=O)C(NC(=O)c2cc(Oc3ccccc3)ccn2)CCc2ccc(N3CCC4(CCOCC4)CC3)cc21 (racemic) [Compound I-27, (±)-N-(1-Methyl-2-oxo-8-(3-oxa-9-azaspiro[5.5]undecan-9-yl)-2,3,4,5-tetrahydro-1H-benzo[b]azepin-3-yl)-4-phenoxypicolinamide] | 46.4 | 4.8 | 641
5 | CN1C(=O)[C@@H](NC(=O)c2n[nH]c(Cc3ccccc3)n2)CCc2ccc(C#CC(C)(C)O)cc21 [Compound I-10, (S)-5-Benzyl-N-(8-(3-hydroxy-3-methylbut-1-yn-1-yl)-1-methyl-2-oxo-2,3,4,5-tetrahydro-1H-benzo[b]azepin-3-yl)-1H-1,2,4-triazole-3-carboxamide] | 39.2 | 1.7 | 37.8
6 | CN1C(=O)C(NC(=O)c2cc(Oc3ccccc3)ccn2)CCc2ccc(C#CC(C)(C)O)cc21 (racemic) [Compound I-24, (±)-N-(8-(3-Hydroxy-3-methylbut-1-yn-1-yl)-1-methyl-2-oxo-2,3,4,5-tetrahydro-1H-benzo[b]azepin-3-yl)-4-phenoxypicolinamide] | 58.1 | 1.9 | 13
7 | CN1C(=O)C(NC(=O)c2n[nH]c(Cc3ccccc3)n2)CCc2ccc(CN3CCn4ncnc4C3)cc21 (racemic) [Compound I-8, (±)-5-Benzyl-N-(8-((5,6-dihydro-[1,2,4]triazolo[1,5-a]pyrazin-7(8H)-yl)methyl)-1-methyl-2-oxo-2,3,4,5-tetrahydro-1H-benzo[b]azepin-3-yl)-1H-1,2,4-triazole-3-carboxamide] | 378 | 9.3 | 5440
8 | CN1C(=O)C(NC(=O)c2cc(Oc3ccccc3)ccn2)CCc2ccc(N3CC4(CCCCC4)C3)cc21 (racemic) [Compound I-30, (±)-N-(1-Methyl-2-oxo-8-(2-azaspiro[3.5]nonan-2-yl)-2,3,4,5-tetrahydro-1H-benzo[b]azepin-3-yl)-4-phenoxypicolinamide] | 603 | 16.2 | 1170

Continued, in another order:

Row | IC50 (RIPK1) [nM] | SMILES | IC50 (human RIP1) [nM] | IC50 (murine RIP1) [nM]
9 | 32.2 | [2H]C([2H])([2H])N1C(=O)C(NC(=O)c2cc(Oc3ccccc3)ccn2)CCc2ccc(C#CC(C)(C)O)cc21 (racemic) [Compound I-28, (±)-N-(8-(3-Hydroxy-3-methylbut-1-yn-1-yl)-1-(methyl-d)-2-oxo-2,3,4,5-tetrahydro-1H-benzo[b]azepin-3-yl)-4-phenoxypicolinamide] | 2.4 | 20.9
10 | 23.4 | CN1C(=O)[C@@H](NC(=O)n2cc(Cc3ccc(F)cc3)cn2)CCc2ccc(C#CC3(O)COC3)cc21 [Compound I-1, (S)-4-(4-fluorobenzyl)-N-(8-((3-hydroxyoxetan-3-yl)ethynyl)-1-methyl-2-oxo-2,3,4,5-tetrahydro-1H-benzo[b]azepin-3-yl)-1H-pyrazole-1-carboxamide] | 0.3 | 2.4
11 | 30.7 | CN1C(=O)C(NC(=O)c2ncn(Cc3c(Cl)cccc3Cl)n2)CCc2ccc(CN3CCN(c4ccncc4)CC3)cc21 (racemic) [Compound I-3, (±)-1-(2,6-Dichlorobenzyl)-N-(1-methyl-2-oxo-8-((4-(pyridin-4-yl)piperazin-1-yl)methyl)-2,3,4,5-tetrahydro-1H-benzo[b]azepin-3-yl)-1H-1,2,4-triazole-3-carboxamide] | 5.8 | 2530
12 | 38.8 | CN1C(=O)[C@@H](NC(=O)c2ccn(Cc3ccccc3)n2)CCc2ccc(N3CC4(CCOCC4)C3)cc21 [Compound I-32, (S)-1-Benzyl-N-(1-methyl-2-oxo-8-(7-oxa-2-azaspiro[3.5]nonan-2-yl)-2,3,4,5-tetrahydro-1H-benzo[b]azepin-3-yl)-1H-pyrazole-3-carboxamide] | 2.7 | 182
13 | 36.6 | CN1C(=O)[C@@H](NC(=O)c2n[nH]c(Cc3ccccc3)n2)CCc2ccc(N3CC4(CCOCC4)C3)cc21 [Compound I-17, (S)-5-Benzyl-N-(1-methyl-2-oxo-8-(7-oxa-2-azaspiro[3.5]nonan-2-yl)-2,3,4,5-tetrahydro-1H-benzo[b]azepin-3-yl)-1H-1,2,4-triazole-3-carboxamide] | 3.9 | 229
14 | 33.4 | CN1C(=O)[C@@H](NC(=O)c2cc(Oc3ccccc3)ccn2)CCc2ccc(-c3ccc(C#CC(C)(C)O)nc3)cc21 [Compound I-2, (S)—N-(8-(6-(3-hydroxy-3-methylbut-1-yn-1-yl)pyridin-3-yl)-1-methyl-2-oxo-2,3,4,5-tetrahydro-1H-benzo[b]azepin-3-yl)-4-phenoxypicolinamide] | 2 | 142
15 | 26 | CN1C(=O)[C@@H](NC(=O)n2cc(Cc3ccc(F)cc3)cn2)CCc2ccc(C#CC3(O)CCOCC3)cc21 [Compound I-34, (S)-4-(4-Fluorobenzyl)-N-(8-((4-hydroxytetrahydro-2H-pyran-4-yl)ethynyl)-1-methyl-2-oxo-2,3,4,5-tetrahydro-1H-benzo[b]azepin-3-yl)-1H-pyrazole-1-carboxamide] | 0.4 | 5.9
